pEC50: −log10 of the molar value. Where two headings read alike, the source gives them in different places.
Tests used:
[1] = tested on: human mast cell line LAD 2; assay: TGR12 ligand-dependent degranulation of LAD 2 (β-hexosaminidase release); assay type: cell-based
Description: Human mast cell line LAD 2 was incubated in StemPro-34 medium (Invitrogen) supplemented with 100 ng/mL of stem cell factor (Immuno-Biological Laboratories Co., Ltd.). […] Subsequently, Tyrode's buffer containing 50 μL of TGR12 ligand (Peptide Institute, Inc.) in various concentrations was added and incubation was continued at 37° C. for further 20 minutes to induce degranulation. The degree of degranulation was determined by assaying the β-hexosaminidase activity in the degranulation assay supernatant as given below. The supernatant was dispensed into a 96-well plate and 0.1M citrate (pH 4.5)/1 mM 4-methyl umbelliferyl-2-acetamido-2-deoxy-beta-D-glucopyranoside (Wako Pure Chemical) in 5-fold of the supernatant was added thereto, followed by incubation at 37° C. for an hour. […] The activity was then assayed using Fusion-α (Perkin-Elmer). The β-hexosaminidase activity was also shown by the activity in the supernatant obtained by centrifugation after freezing and thawing LAD 2 four times, which was made total β-hexosaminidase activity in LAD 2, and the degree of degranulation was shown as the percentage of the β-hexosaminidase activity in the LAD 2 supernatant based on the total β-hexosaminidase activity.

human TGR12 = biological target: T1, human TGR12 (Homo sapiens, UniProt Q96LB1); assay: Intracellular calcium increasing activity in RBL2H3-TGR12 (FLIPR); assay type: cell-based
T1 construct: expressed in transfected cells
T1 sequence (Q96LB1 1-330): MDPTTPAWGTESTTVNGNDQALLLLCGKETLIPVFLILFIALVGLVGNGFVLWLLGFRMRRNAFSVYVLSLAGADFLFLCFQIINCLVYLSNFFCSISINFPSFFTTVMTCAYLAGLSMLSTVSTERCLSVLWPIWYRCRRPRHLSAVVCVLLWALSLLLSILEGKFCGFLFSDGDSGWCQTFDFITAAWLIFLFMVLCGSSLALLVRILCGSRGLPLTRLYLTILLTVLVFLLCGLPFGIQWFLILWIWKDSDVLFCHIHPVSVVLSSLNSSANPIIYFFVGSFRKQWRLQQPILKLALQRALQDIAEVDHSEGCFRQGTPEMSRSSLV
Description: (§1) RBL-2H3 (hereinafter RBL2H3) was incubated in α-MEM (Invitrogen) supplemented with 10% fetal calf serum. Vector plasmid pcDNA3.1 for animal cell expression, in which the nucleotide sequence containing the initiation codon to the termination codon of human TGR12 (DNA having the nucleotide sequence represented by SEQ ID NO: 32) was incorporated, was stably expressed in RBL-2H3 to establish human TGR12-expressed RBL-2H3 cell line (hereinafter RBL2H3-TGR12). RBL2H3-TGR12 was incubated in α-MEM (Invitrogen) supplemented with 10% fetal calf serum and 200 μg/mL of Geneticin.
(§2) The intracellular calcium increasing activity was assayed as follows. RBL2H3 and RBL2H3-TGR12 were plated in a 96-well plate at a density of 40,000 cells/well and incubated overnight. The medium was then discarded and 100 μL/well of 4 μM Fluo3-AM (Dojin Kagaku)-containing assay buffer [Hank's Balanced Salt Solution (Invitrogen), 20 mM HEPES (Dojin Kagaku) and 2.5 mM Probenecid (Sigma)] was added. The mixture was allowed to stand for an hour at 37° C. Various TGR12 (Peptide Institute, Inc.) or calcium ionophore A23187 (Wako Pure Chemical) was diluted in 0.05% CHAPS-containing assay buffer. After the cells were washed with the assay buffer, fluorescence emitted with changes in intracellular calcium was measured using FLIPR (Molecular Device). A sample, 50 μL, was added at a rate of 50 μL/sec. 10 seconds after initiation of the assay. Fluorescence was measured every 1 second during the first 60 seconds and every 6 seconds during the next 120 seconds. The highest fluorescence intensity during 3 minutes was made the maximum activity under the stimulation conditions, which was taken as an average of 3 wells. The EC50 values were calculated using Graphpad PRISM 4 (Graphpad Software).

RBL-2H3 = assay: Intracellular calcium increasing activity in RBL2H3 (FLIPR); assay type: cell-based; set-up: unit not given here
Description: as §1, §2

TGR12 = assay type: cell-based, human; conditions: for pEC50: CHO-TGR12, read-out: EC50 in the calcium increasing effect on CHO-TGR12
Description: CHO/dhfr^− cells (hereinafter CHO) were incubated in α-MEM (Invitrogen) supplemented with 10% fetal calf serum. After a termination codon in the TGR12-encoding nucleotide sequence was removed, a nucleotide sequence ligated with the nucleotide sequence encoding GFP (Wako Pure Chemical) [hereinafter briefly referred to as TGR12-GFP (DNA having the nucleotide sequence represented by SEQ ID NO: 31)] was incorporated into vector plasmid pAKKO-111H (the same vector plasmid as pAKKO1.11H described in Biochim. Biophys. Acta, 1219, 251-259 (1994)) for animal cell expression, and the vector plasmid was stably expressed to establish TGR12-GFP-expressed CHO cell line (hereinafter CHO-TGR12). CHO-TGR12 was incubated in nucleic acid-free α-MEM medium (Invitrogen) containing 10% dialyzed fetal calf serum.
CHO-TGR12 was plated in a 96-well plate at a density of 30,000 cells/well. After incubation overnight, the medium was discarded and 100 μL/well of assay buffer [Hank's Balanced Salt Solution (Invitrogen), 20 mM HEPES (Dojin Chemical Laboratory) and 2.5 mM Probenecid (Sigma)] containing 4 μM Fluo3-AM (Dojin Chemical Laboratory) was added, which was then allowed to stand for an hour at 37° C. […] After the cells were washed with assay buffer, fluorescence reflecting changes in intracellular calcium levels was assayed on FLIPR (Molecular Device). Ten seconds after initiation of the assay, 50 μL of a sample was added at a rate of 50 μL/second. Fluorescence measurement was taken every 1 second during the first 60 seconds and then every 6 seconds during the next 120 seconds; the highest fluorescence intensity over a 3 minute period was taken as the maximum activity under the stimulation condition, representing the mean value of 3 wells. The EC50 values were determined using Graphpad PRISM 4 (Graphpad Software).

[2] = CHO-TGR12, 0.3 nM, highest fluorescence intensity over 3 minutes

For `CSCC[C@H](NC(=O)[C@H](CCCNC(=N)N)NC(=O)[C@@H](N)CC(=O)O)C(=O)N1CCC[C@H]1C(=O)N[C@H]1CSSC[C@@H](C(=O)N[C@@H](CCCCN)C(=O)O)NC(=O)[C@H](CO)NC(=O)[C@H](CO)NC(=O)[C@H](Cc2ccccc2)NC(=O)[C@H]([C@@H](C)O)NC(=O)[C@H](CCCCN)NC(=O)[C@H](Cc2c[nH]c3ccccc23)NC(=O)[C@H](Cc2ccccc2)NC(=O)[C@H](Cc2ccccc2)NC(=O)[C@H](CC(N)=O)NC(=O)[C@H](CCCNC(=N)N)NC1=O` [cortistatin-17], the “stimulated degranulation (β-hexosaminidase in supernatant, % of total)” value ([1]; LAD 2, 10 nM) was 1.6%, the “stimulated degranulation (β-hexosaminidase in supernatant, % of total)” value ([1]; LAD 2, 30 nM) was 2.8% and the “stimulated degranulation (β-hexosaminidase in supernatant, % of total)” value ([1]; LAD 2, 100 nM) was 26.5%. For the same compound, the “stimulated degranulation (β-hexosaminidase in supernatant, % of total)” value ([1]; LAD 2, 300 nM) was 52.8%, the “stimulated degranulation (β-hexosaminidase in supernatant, % of total)” value ([1]; LAD 2, 1 μM) was 62.2% and the “stimulated degranulation (β-hexosaminidase in supernatant, % of total)” value ([1]; LAD 2, 3 μM) was 58.9%. The “maximum activity in the calcium increasing effect” value (human TGR12; RBL2H3-TGR12, 1 nM) was −2, the “maximum activity in the calcium increasing effect” value (human TGR12; RBL2H3-TGR12, 10 nM) was 33 and the “maximum activity in the calcium increasing effect” value (human TGR12; RBL2H3-TGR12, 100 nM) was 1574. For the same compound, the “maximum activity in the calcium increasing effect” value (human TGR12; RBL2H3-TGR12, 1 μM) was 11193, the “maximum activity in the calcium increasing effect” value (human TGR12; RBL2H3-TGR12, 10 μM) was 12762 and the “maximum activity in the calcium increasing effect” value (RBL-2H3; RBL2H3, 1 nM) was 67. For the same compound, the “maximum activity in the calcium increasing effect” value (RBL-2H3; RBL2H3, 10 nM) was 78, the “maximum activity in the calcium increasing effect” value (RBL-2H3; RBL2H3, 100 nM) was 54 and the “maximum activity in the calcium increasing effect” value (RBL-2H3; RBL2H3, 1 μM) was 49. For the same compound, the “maximum activity in the calcium increasing effect” value (RBL-2H3; RBL2H3, 10 μM) was 52, the “maximum activity in the calcium increasing effect” value (TGR12; [2]) was 67 and the “maximum activity in the calcium increasing effect” value (TGR12; CHO-TGR12, 3 nM) was 54. The “maximum activity in the calcium increasing effect” value (TGR12; CHO-TGR12, 30 nM) was 94, the “maximum activity in the calcium increasing effect” value (TGR12; CHO-TGR12, 300 nM) was 17914 and the “maximum activity in the calcium increasing effect” value (TGR12; CHO-TGR12, 3000 nM) was 23647.

`CC(C)C[C@H](NC(=O)[C@H](C)NC(=O)[C@H](Cc1c[nH]c2ccccc12)NC(=O)[C@H](CCCCN)NC(=O)[C@H](CC(N)=O)NC(=O)[C@H](Cc1c[nH]c2ccccc12)NC(=O)[C@H](CCCCN)NC(=O)[C@H](CCCCN)NC(=O)[C@H](CCCNC(=N)N)NC(=O)[C@@H](N)Cc1ccccc1)C(=O)N[C@@H](CO)C(=O)N[C@@H](CCCNC(=N)N)C(N)=O` [PAMP-12, proadrenomedullin N-terminal 20 peptide (9-20)] was tested, and the pEC50 [1] was about 7.89, the “stimulated degranulation (β-hexosaminidase in supernatant, % of total)” value ([1]; LAD 2, 3 nM) was 6.3% and the “stimulated degranulation (β-hexosaminidase in supernatant, % of total)” value ([1]; LAD 2, 10 nM) was 30.7%. The “stimulated degranulation (β-hexosaminidase in supernatant, % of total)” value ([1]; LAD 2, 30 nM) was 52.1%, the “stimulated degranulation (β-hexosaminidase in supernatant, % of total)” value ([1]; LAD 2, 100 nM) was 65.2% and the “stimulated degranulation (β-hexosaminidase in supernatant, % of total)” value ([1]; LAD 2, 300 nM) was 67.7%. For the same compound, the “stimulated degranulation (β-hexosaminidase in supernatant, % of total)” value ([1]; LAD 2, 1 μM) was 69.3%, the “maximum activity in the calcium increasing effect” value (human TGR12; RBL2H3-TGR12, 1 nM) was 41 and the “maximum activity in the calcium increasing effect” value (human TGR12; RBL2H3-TGR12, 10 nM) was 2088. For the same compound, the “maximum activity in the calcium increasing effect” value (human TGR12; RBL2H3-TGR12, 100 nM) was 11110, the “maximum activity in the calcium increasing effect” value (human TGR12; RBL2H3-TGR12, 1 μM) was 12039 and the “maximum activity in the calcium increasing effect” value (human TGR12; RBL2H3-TGR12, 10 μM) was 12331. For the same compound, the “maximum activity in the calcium increasing effect” value (RBL-2H3; RBL2H3, 1 nM) was 52, the “maximum activity in the calcium increasing effect” value (RBL-2H3; RBL2H3, 10 nM) was 52 and the “maximum activity in the calcium increasing effect” value (RBL-2H3; RBL2H3, 100 nM) was 35. The “maximum activity in the calcium increasing effect” value (RBL-2H3; RBL2H3, 1 μM) was 44, the “maximum activity in the calcium increasing effect” value (RBL-2H3; RBL2H3, 10 μM) was 43 and the “maximum activity in the calcium increasing effect” value (TGR12; [2]) was 255. The “maximum activity in the calcium increasing effect” value (TGR12; CHO-TGR12, 3 nM) was 1617, the “maximum activity in the calcium increasing effect” value (TGR12; CHO-TGR12, 30 nM) was 22291 and the “maximum activity in the calcium increasing effect” value (TGR12; CHO-TGR12, 300 nM) was 24088. For the same compound, the “maximum activity in the calcium increasing effect” value (TGR12; CHO-TGR12, 3000 nM) was 23743 and the pEC50 (TGR12) was about 7.01.

With `CC[C@H](C)[C@H](NC(=O)[C@H](CO)NC(=O)[C@H](CC(N)=O)NC(=O)[C@H](CC(C)C)NC(=O)[C@H](Cc1ccc(O)cc1)NC(=O)[C@H](CCCCN)NC(=O)[C@H](CCCCN)NC(=O)[C@@H](NC(=O)[C@H](C)NC(=O)[C@H](CCSC)NC(=O)[C@H](CCC(N)=O)NC(=O)[C@H](CCCCN)NC(=O)[C@H](CCCNC(=N)N)NC(=O)[C@H](CC(C)C)NC(=O)[C@H](CCCNC(=N)N)NC(=O)[C@@H](NC(=O)[C@H](Cc1ccc(O)cc1)NC(=O)[C@H](CC(N)=O)NC(=O)[C@H](CC(=O)O)NC(=O)[C@@H](NC(=O)[C@H](Cc1ccccc1)NC(=O)[C@@H](NC(=O)[C@H](C)NC(=O)[C@H](CC(=O)O)NC(=O)[C@H](CO)NC(=O)[C@@H](N)Cc1c[nH]cn1)C(C)C)[C@@H](C)O)[C@@H](C)O)C(C)C)C(=O)N[C@@H](CC(C)C)C(=O)N[C@@H](CC(N)=O)C(N)=O` [VIP, vasoactive intestinal polypeptide] the “stimulated degranulation (β-hexosaminidase in supernatant, % of total)” value ([1]; LAD 2, 10 nM) was 1.5%, the “stimulated degranulation (β-hexosaminidase in supernatant, % of total)” value ([1]; LAD 2, 30 nM) was 4.0% and the “stimulated degranulation (β-hexosaminidase in supernatant, % of total)” value ([1]; LAD 2, 100 nM) was 36.7%. The “stimulated degranulation (β-hexosaminidase in supernatant, % of total)” value ([1]; LAD 2, 300 nM) was 63.9%, the “stimulated degranulation (β-hexosaminidase in supernatant, % of total)” value ([1]; LAD 2, 1 μM) was 71.7% and the “stimulated degranulation (β-hexosaminidase in supernatant, % of total)” value ([1]; LAD 2, 3 μM) was 76.1%. The pEC50 ([1]; LAD 2, read-out: EC50 in the degranulation on LAD 2) was about 6.98, the “maximum activity in the calcium increasing effect” value (TGR12; [2]) was 56 and the “maximum activity in the calcium increasing effect” value (TGR12; CHO-TGR12, 3 nM) was 60. The “maximum activity in the calcium increasing effect” value (TGR12; CHO-TGR12, 30 nM) was 16, the “maximum activity in the calcium increasing effect” value (TGR12; CHO-TGR12, 300 nM) was 11153 and the “maximum activity in the calcium increasing effect” value (TGR12; CHO-TGR12, 3000 nM) was 24007. The pEC50 (TGR12) was about 6.52.

Reference: patent publication US20100068208A1, “Degranulation inhibitor” (priority 2005, published 2010)
